Laboratory results reported in patent publication US20040210958A1, “A Novel Culture Method for Corn Transformation” (MONSANTO TECHNOLOGY LLC, priority 2003, published 2004).

System: nodal section explants from 7-day-old seedlings of corn line 106
Experiment: Effect of seed germination medium on callus induction from nodal section explants (36-media screen)
Format: cell-based
Procedure: This example described experiments to determine the best combination of auxins and cytokinins in the germination tissue culture media. To improve the efficiency of callus induction from 106 seedlings, 36 different germination media were evaluated. Those media were MS-based with different combinations of picloram (0, 0.1, 1, 2.2, 5 or 10 mg/L) and BAP (0, 0.1, 1, 3, 5 or 10 mg/L) concentrations.

Row | Structure (SMILES) | callus induction (% embryogenic calli per node) (germination medium picloram 0.10 mg/L, BAP 0.00 mg/L) [%] | callus induction (% embryogenic calli per node) (germination medium picloram 1.00 mg/L, BAP 0.00 mg/L) [%] | callus induction (% embryogenic calli per node) (germination medium picloram 2.20 mg/L, BAP 0.00 mg/L) [%] | callus induction (% embryogenic calli per node) (germination medium picloram 5.00 mg/L, BAP 0.00 mg/L) [%] | callus induction (% embryogenic calli per node) (germination medium picloram 10.00 mg/L, BAP 0.00 mg/L) [%] | callus induction (% embryogenic calli per node) (germination medium picloram 0.00 mg/L, BAP 0.10 mg/L) [%] | callus induction (% embryogenic calli per node) (germination medium picloram 0.00 mg/L, BAP 1.00 mg/L) [%] | callus induction (% embryogenic calli per node) (germination medium picloram 0.00 mg/L, BAP 3.00 mg/L) [%] | callus induction (% embryogenic calli per node) (germination medium picloram 0.00 mg/L, BAP 5.00 mg/L) [%] | callus induction (% embryogenic calli per node) (germination medium picloram 0.00 mg/L, BAP 10.00 mg/L) [%]
1 | Nc1c(Cl)c(Cl)nc(C(=O)O)c1Cl [Picloram, 4-amino-3,5,6-trichloropicolinic acid] | 0.00 | 9.52 | 9.52 | 19.05 | 4.76 |  |  |  |  | 
2 | c1ccc(CNc2ncnc3nc[nH]c23)cc1 [BAP, 6-benzylaminopurine] |  |  |  |  |  | 4.76 | 0.00 | 14.29 | 0.00 | 0.00
